Test results: article PMC10266261, “A High-Throughput Approach to Identify Specific Neurotoxicants / Developmental Toxicants in Human Neuronal Cell Function Assays” (ALTEX, 2018)
Where two headings read alike, the source gives them in different places.

Assays:
LUHMES cells = assay: cells; assay type: cell-based, human; settings: for classification / outcome after hit confirmation or re-testing (EC50 prediction model): EC50 ratio V/NA ≥ 4 specific, < 4 cytotoxic; for classification in the NeuriTox screen: hit = NA decreased at concentrations not affecting viability; for ratio EC50(V)/EC50(NA): specificity threshold 4
Procedure: For the NeuriTox test (= UKN4), LUHMES (Lund human mesencephalic) cells were characterized and cultured as described in detail earlier ([Krug et al., 2013]; [Lotharius et al., 2005]; [Scholz et al., 2011]). Briefly, cells were maintained in proliferation medium (PM: AdvDMEM/F12 supplemented with 2 mM glutamine, 1x N2 supplement and 40 ng/ml fibroblast growth factor-2) in PLO/fibronectin coated flasks (50 μg/ml poly-L-ornithine (PLO) and 1 μg/ml fibronectin). For differentiation, cells were seeded at a density of 46,000 cells/cm^2 in PM. After 24 h, they were switched to differentiation medium (DM) containing AdvDMEM/F12 supplemented with 2 mM glutamine, 1x N2 supplement, 2.25 μM tetracycline, 1 mM dibutyryl 3’,5’-cyclic adenosine monophosphate (cAMP), and 2 ng/ml recombinant human glial cell derived neurotrophic factor (GDNF).
For the NeuriTox test, LUHMES cells were differentiated for 48 h and seeded into 96 well plates at a density of 100,000 cells/cm^2 in a volume of 90 μl DM without cAMP and GDNF. Treatment was initiated applying 10 μl of a 10x concentrated treatment solution one hour after seeding. At 24 h after treatment, staining mix (SM) was applied (final concentrations: 1 μg/ml H-33342, 1 μM calcein-AM).
(§1) Image acquisition was performed with an ArrayScan VTI HCS (high content imaging) microscope (Cellomics, Waltham, MA, USA).
The procedure was applied as detailed earlier ([Hoelting et al., 2016]; [Stiegler et al., 2011]). After automated imaging, an algorithm was applied that identified the neuronal somata (based on identified nuclei) and subtracted the somatic area from the total neuronal area to obtain the neurite area (NA), i.e., the number of pixels per field covered by neurites. Viability analysis was performed on the same pictures using combined information from H-33342 and calcein channels. Cells with normal-sized nuclei that were calcein-positive were counted as live cells, whereas H-33342 single-positive cells were counted as dead cells. Viability (V) was expressed as percentage of live cells relative to control.
(§2) Neurite area (NA) and viability (V) were always expressed as percentage of the DMSO control. In a first step, matched technical replicates were averaged. […] Curve fitting was performed employing a 4-parameter log-logistic function with least squares fit. The upper asymptote of the fit was forced to 100%, the lower asymptote was variable. The variation of DMSO controls was calculated from pooled values of DMSO controls over several experiments.
For calculation of the benchmark concentration values (BMC), a benchmark response (BMR) of three standard deviations of DMSO solvent controls of all assay plates (= “3 x noise level”) was used. […] To identify specific effects on neurite outgrowth, the EC50 ratio of EC50(viability)/EC50(neurite area) was calculated. The NeuriTox test system has a specificity threshold ratio of 4, the PeriTox test system has one of 3 ([Hoelting et al., 2016]; [Krug et al., 2013]).
If V was not affected at the highest tested concentration (HTC), then 4 x HTC was used as surrogate EC50(V) (marked with ♦; for EC25 calculation, the HTC was doubled in this case) ([Krug et al., 2013]).
For the actual screening procedure, a defined workflow was established that contained several pre-determined decision points. All compounds were tested at 1:1000 dilutions of their stock concentration, and at subsequent 3-fold dilution levels. For most compounds, the stock was 20 mM, so that the test concentrations were 20 μM, 6.7 μM, 2.2 μM, 0.7 μM, 0.25 μM, 82 nM, 27 nM, 9 nM, 3 nM, and 1 nM. For 2,2’,4,4’,5,5’-hexabromodiphenyl-ether, chrysene, dibenz(a,h)anthracene, bis(tributyltin) oxide, benzo[g,h,i]perylene, and 2,3,7,8-tetrachlorodibenzo-p-dioxin lower stock concentrations were used.

[1] = tested on: immature human dorsal root ganglia neurons; assay: cells; assay type: cell-based; settings: for classification in the PeriTox screen: three independent screen runs, up to 20 μM
Procedure: The PeriTox test (= UKN5) is based on cells differentiated from the H9 human embryonic stem cell (hESC) line (WA09 line), which was obtained from WiCell (Madison, WI, USA). The import of cells and the experiments were authorized under license no. 170–79-1–4-27 (Robert Koch Institute, Berlin, Germany).
After one hour, 25 μl PDM with 4x concentrated serial dilutions of the test compounds was added to the cells. At 23 h after treatment, the cells were stained with SM and incubated for one additional hour at 37°C.
as §1
After automated imaging, an algorithm was applied that identified the neuronal somata (based on identified nuclei) and subtracted the somatic area from the total neuronal area to obtain the neurite area (NA), i.e., the number of pixels per field covered by neurites. […] Viability (V) was expressed as percentage of live cells relative to control.
as §2
For calculation of the benchmark concentration values (BMC), a benchmark response (BMR) of three standard deviations of DMSO solvent controls of all assay plates (= “3 x noise level”) was used. […] To identify specific effects on neurite outgrowth, the EC50 ratio of EC50(viability)/EC50(neurite area) was calculated.
This method uses human immature dorsal root ganglia neurons (iDRG) that are produced from pluripotent stem cells that are still in a phase of neurite growth. Like in the NeuriTox assay, exposure to toxicants in this test is for 24 h, and readouts for viability (V) and neurite area (NA) are also conducted in a similar way (Fig. 7A).

cardiomyocytes = settings: specific = cardio-physiologic parameters affected after 30 min at three-fold lower concentration than viability and no effect on viability after 24 h; ref Sirenko et al., 2017; cited from earlier work

## O=P(Oc1ccccc1)(Oc1ccccc1)Oc1ccccc1 [Triphenyl phosphate]
LUHMES cells
  classification / outcome after hit confirmation or re-testing (EC50 prediction model): clearly non-toxic at concentrations up to 20 μM
LUHMES cells; Homo sapiens, read-out: toxicity EC50
  EC50: > 200 µM

## Brc1ccc(Oc2ccc(Br)cc2Br)c(Br)c1 [TBDE, 2,2’,4,4’-tetrabromodiphenylether]
LUHMES cells
  classification / outcome after hit confirmation or re-testing (EC50 prediction model): unspecific cytotoxicants

## Oc1c(Cl)cc(Cl)c(Cl)c1Cc1c(O)c(Cl)cc(Cl)c1Cl [Hexachlorophene]
LUHMES cells; screen, up to 20 μM, 24 h
  classification in the NeuriTox screen: cytotoxic

## CCCCNC(=O)OCC#CI [Iodocarb]
[1]; Homo sapiens, Neuron, hit confirmation, 24 h, read-out: EC50(NA), neurite area
  EC50: 7.8 µM
[1]; Homo sapiens, Neuron, hit confirmation, V not affected at HTC: 4 x HTC used as surrogate, read-out: EC50(V), viability, surrogate marked ♦
  EC50: 66 µM
[1]
  classification in the PeriTox screen: active hit compounds
LUHMES cells; Homo sapiens, screen data, 24 h exposure, up to 20 μM, read-out: EC50(NA), neurite area
  EC50: 0.9 µM
LUHMES cells; Homo sapiens, screen data, 24 h exposure, up to 20 μM, read-out: EC50(V), viability
  EC50: 1.2 µM
LUHMES cells; screen data
  ratio EC50(V)/EC50(NA): 1.3

## Cl.NCCc1cc(O)c(O)cc1O [6-Hydroxydopamine hydrochloride]
cardiomyocytes
  classification in the cardiotoxicity test method: specific

## CCCC(CCC)C(=O)O [VPA, valproic acid]
[1]
  classification / outcome after hit confirmation (EC50 ratio viability/neurite area ≥ 3): cytotoxic

## CC/C(=C(/CC)c1ccc(O)cc1)c1ccc(O)cc1 [Diethylstilbestrol]
[1]
  classification in the PeriTox screen: active hit compounds
LUHMES cells; screen, up to 20 μM, 24 h
  classification in the NeuriTox screen: active hit compounds

## C=CC(N)=O [Acrylamide]
[1]
  classification / outcome after hit confirmation (EC50 ratio viability/neurite area ≥ 3): specific PeriTox hit
[1]; hit confirmation, ≥ 3 = specific hit
  ratio EC50(V)/EC50(NA): 3.2
[1]; tested at high concentration, 24 h, read-out: EC50(NA), neurite area
  EC50: 2300 µM

## [CH3][Hg][Cl] [Methylmercury (II) chloride]
[1]
  classification in the PeriTox screen: active hit compounds
LUHMES cells; screen data, 24 h exposure, up to 20 μM, read-out: EC50(NA), neurite area
  EC50: 0.09 µM
LUHMES cells; screen data, 24 h exposure, up to 20 μM, read-out: EC50(V), viability
  EC50: 0.16 µM
LUHMES cells; screen data
  ratio EC50(V)/EC50(NA): 1.8

## CC(C)(C)C(O)(CCc1ccc(Cl)cc1)Cn1cncn1 (centres unmarked) [tebuconazole]
LUHMES cells; Homo sapiens, hit confirmation / re-testing, adjusted concentration range, 24 h, read-out: EC50(NA), neurite area
  EC50: 142 µM
LUHMES cells; Homo sapiens, re-testing, extended concentration range, read-out: toxicity EC50
  EC50: 238 µM

## CNC(=O)Oc1cccc2ccccc12 [Carbaryl]
[1]
  classification in the PeriTox screen: active hit compounds
cardiomyocytes
  classification in the cardiotoxicity test method: specific
LUHMES cells; Homo sapiens, 24 h, read-out: EC50(NA), neurite area
  EC50: 31 µM
LUHMES cells; Homo sapiens, 24 h, read-out: EC50(V), viability
  EC50: 130 µM
LUHMES cells; screen, 24 h
  LOAEL for neurite area (lowest tested concentration with significant reduction): 20 µM
LUHMES cells; screen, up to 20 μM, 24 h
  classification in the NeuriTox screen: active hit compounds
